# Experimental data: US11072617B2, “Bicyclic sulfones and sulfoxides and methods of use thereof” (Genentech, Inc., priority 2017, dated 2021)
# Target: human RIP1 kinase domain (2-375) (Homo sapiens (Human), UniProt Q13546)
# Assay: RIP1 kinase inhibition biochemical assay (Transcreener ADP, fluorescence polarization)
# Settings: Ki app from tight-binding Morrison equation; 50 nM enzyme, 50 uM ATP, 2 hours incubation
# Procedure: RIP1 Kinase Inhibition Assays (Biochemical Assay)
# The compounds of the present invention were tested for their capacity to inhibit RIP1K activity as described below.
# The ability of the receptor interacting protein kinase (RIPK1) to catalyze the hydrolysis of adenosine-5′-triphosphate (ATP) is monitored using the Transcreener ADP (adenosine-5′-diphosphate) assay (BellBrook Labs). Purified human RIP1 kinase domain (2-375) (50 nM) derived from a baculovirus-infected insect cell expression system is incubated with test compounds for 2 hours in 50 mM Hepes buffer (pH 7.5) containing 30 mM MgCl2, 1 mM dithiothreitol, 50 uM ATP, 0.002% Brij-35, and 0.5% dimethyl sulfoxide (DMSO). Reactions are quenched by the addition of 1× Bell Brooks Stop buffer B (20 mM Hepes (ph7.5), 40 mM ethylenediaminetetraacetic acid and 0.02% Brij-35) containing an additional 12 mM EDTA and 55 ug/mL ADP2 antibody and 4 nM ADP-AlexaFluor® 633 tracer. The tracer bound to the antibody is displaced by the ADP generated during the RIP1K reaction, which causes a decrease in fluorescence polarization that is measured by laser excitation at 633 nm with a FP microplate reader M1000. Fractional activity was plotted against test article concentration. Using Genedata Screener software (Genedata; Basel, Switzerland), the data were fit to the tight-binding apparent inhibition constant (Ki^app) Morrison equation [Williams, J. W. and Morrison, J. F. (1979) The kinetics of reversible tight-binding inhibition. Methods Enzymol 63: 437-67]. The following equation was used to calculate fractional activity and Ki^app:
# [formula] where [E]T and [I]T are the total concentrations of active enzyme and test article, respectively.
# Exemplary compounds of the present invention are provided in Table 1 along with their physiochemical characterization and in vitro RIP1 kinase inhibitory activity data. “Method” in the first column of each table refers to the synthetic method(s) used to prepare each compound as shown in the Examples above. In certain examples, chiral column retention times (min) are provided for certain stereoisomers. Unless otherwise specified, the stereochemistry shown in each structure represents relative configuration of a single stereoisomer, and absolute configuration (i.e., “R” and/or “S”) is arbitrarily assigned. In some embodiments, where the Method is described to include the separation of stereoisomers, a single stereoisomer of a compound of Table 1 is provided.
# Chain of human RIP1 kinase domain (2-375) (Q13546 2-375): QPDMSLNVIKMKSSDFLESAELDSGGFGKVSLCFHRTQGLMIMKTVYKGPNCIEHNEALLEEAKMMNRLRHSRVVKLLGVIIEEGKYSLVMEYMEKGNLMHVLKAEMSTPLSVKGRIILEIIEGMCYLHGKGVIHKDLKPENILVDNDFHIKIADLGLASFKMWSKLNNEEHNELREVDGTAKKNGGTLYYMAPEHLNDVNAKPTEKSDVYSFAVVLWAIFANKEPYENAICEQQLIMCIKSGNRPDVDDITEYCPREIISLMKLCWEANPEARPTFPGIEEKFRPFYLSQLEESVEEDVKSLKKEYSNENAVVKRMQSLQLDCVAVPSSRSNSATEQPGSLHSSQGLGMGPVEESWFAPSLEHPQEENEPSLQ
row,Ki,Structure (SMILES)
1,162 nM,"CC[S@+]([O-])c1nc2n(n1)[C@H](c1ccccc1)CC2 [Example 3, (5S)-2-[(S)-ethylsulfinyl]-5-phenyl-6,7-dihydro-5H-pyrrolo[1,2-b][1,2,4]triazole]"
2,31 nM,"COC[S+]([O-])c1nc2n(n1)[C@H](c1ccccc1)C[C@@H]2F (stereo partly drawn) [Example 115, (5S,7S)-7-fluoro-2-(methoxymethylsulfinyl)-5-phenyl-6,7-dihydro-5H-pyrrolo[1,2-b][1,2,4]triazole]"
3,11 nM,"CCS(=O)(=O)c1nc2n(n1)[C@H](c1ccccc1)C[C@@H]2F (single isomer, unassigned) [Example 108]"
4,880 nM,"O=S(=O)(c1nc2n(n1)[C@@H](c1cccc(F)c1F)C[C@H]2F)C1CC1 (single isomer, unassigned) [Example 36]"
5,300 nM,"O=S(=O)(c1nc2n(n1)[C@H](c1ccccc1)C[C@@H]2F)[C@H]1C[C@@H](O)C1 (single isomer, unassigned) [Example 225]"
6,12 nM,"[O-][S+](c1nc2n(n1)[C@H](c1ccccc1)C[C@@H]2F)C1CC(F)(F)C1 (stereo partly drawn) [Example 49, (5S,7S)-2-(3,3-difluorocyclobutyl)sulfinyl-7-fluoro-5-phenyl-6,7-dihydro-5H-pyrrolo[1,2-b][1,2,4]triazole]"
7,530 nM,"N#CC[S@+]([O-])c1nc2n(n1)[C@H](c1ccc(F)cc1)C[C@@H]2F (single isomer, unassigned) [Example 99]"
8,6 nM,"O=S(=O)(c1nc2n(n1)[C@H](c1cc(F)cc(F)c1F)C[C@@H]2F)C1CC1 (single isomer, unassigned) [Example 39]"
9,8 nM,"CC[S@+]([O-])c1nc2n(n1)[C@H](c1ccccc1)C[C@@H]2F (single isomer, unassigned) [Example 190]"
10,14 nM,"C[C@H]1C[C@@H]1S(=O)(=O)c1nc2n(n1)[C@H](c1ccccc1)C[C@@H]2F (mixture of isomers) [Example 162, (5S,7S)-7-fluoro-5-phenyl-2-[rac-(1S,2S)-2-methylcyclopropyl]sulfonyl-6,7-dihydro-5H-pyrrolo[1,2-b][1,2,4]triazole]"
11,190 nM,"[O-][S@+](CF)c1nc2n(n1)[C@H](c1cc(F)ccc1F)C[C@@H]2F (single isomer, unassigned) [Example 79]"
12,60 nM,"O=S(=O)(CC1CC1)c1nc2n(n1)[C@H](c1ccccc1)C[C@@H]2F (single isomer, unassigned) [Example 112]"
13,250 nM,"CS(=O)(=O)c1nc2n(n1)[C@H](c1ccccc1F)CC2 (single isomer, unassigned) [Example 7]"
14,4 nM,"O=S(=O)(c1nc2n(n1)[C@H](c1ccccc1F)C[C@@H]2F)C(F)(F)F (single isomer, unassigned) [Example 133]"
15,7 nM,"O=S(=O)(c1nc2n(n1)[C@H](c1c(F)ccc(F)c1F)C[C@@H]2F)C(F)F (single isomer, unassigned) [Example 59]"
16,6 nM,"O=S(=O)(c1nc2n(n1)[C@H](c1ccccc1)C[C@@H]2F)[C@H]1CCC1(F)F [Example 172, (5S,7S)-7-fluoro-5-phenyl-2-[(1S)-2,2-difluorocyclobutyl]sulfonyl-6,7-dihydro-5H-pyrrolo[1,2-b][1,2,4]triazole]"
17,34 nM,"CC[S+]([O-])c1nc2n(n1)[C@H](c1ccccc1)C[C@@H]2F (stereo partly drawn) [Example 107, (5S,7S)-2-ethylsulfinyl-7-fluoro-5-phenyl-6,7-dihydro-5H-pyrrolo[1,2-b][1,2,4]triazole]"
18,< 5 nM,"O=S(=O)(c1nc2n(n1)[C@H](c1cc(F)ccc1F)C[C@@H]2F)C(F)(F)F (single isomer, unassigned) [Example 138]"

row,Ki,Structure (SMILES)
1,< 5 nM,"O=S(=O)(c1nc2n(n1)[C@H](c1cc(F)ccc1F)C[C@@H]2F)[C@H]1CC1(F)F (single isomer, unassigned) [Example 126]"
2,20 nM,"O=S(=O)(c1nc2n(n1)[C@H](c1cccc(Cl)c1F)C[C@@H]2F)C1CC1 (single isomer, unassigned) [Example 46]"
3,68 nM,"O=S(=O)(CCOC(F)F)c1nc2n(n1)[C@H](c1ccccc1)C[C@@H]2F (single isomer, unassigned) [Example 198]"
4,3 nM,"N#CC[S@@+]([O-])c1nc2n(n1)[C@H](c1ccccc1F)C[C@@H]2F (single isomer, unassigned) [Example 96]"
5,4 nM,"O=S(=O)(c1nc2n(n1)[C@H](c1ccccc1)C[C@@H]2F)C1CC1(F)F (mixture of isomers) [Example 118, (5S,7S)-2-((2,2-difluorocyclopropyl)sulfonyl)-7-fluoro-5-phenyl-6,7-dihydro-5H-pyrrolo[1,2-b][1,2,4]triazole]"
6,23 nM,"O=S(=O)(CF)c1nc2n(n1)[C@H](c1ccccc1)C[C@@H]2F (single isomer, unassigned) [Example 72]"
7,44 nM,"[O-][S+](CC1CC1)c1nc2n(n1)[C@H](c1ccccc1)C[C@@H]2F (stereo partly drawn) [Example 111, (5S,7S)-2-(cyclopropylmethylsulfinyl)-7-fluoro-5-phenyl-6,7-dihydro-5H-pyrrolo[1,2-b][1,2,4]triazole]"
8,20 nM,"CC(C)(C)[S+]([O-])c1nc2n(n1)[C@H](c1ccccc1)C[C@@H]2F (stereo partly drawn) [Example 24, (5S,7S)-2-(tert-butylsulfinyl)-7-fluoro-5-phenyl-6,7-dihydro-5H-pyrrolo[1,2-b][1,2,4]triazole]"
9,< 5 nM,"N#C[C@H]1C[C@@H]1S(=O)(=O)c1nc2n(n1)[C@H](c1ccccc1)C[C@@H]2F [Example 209, (1R,2S)-2-[[(5S,7S)-7-fluoro-5-phenyl-6,7-dihydro-5H-pyrrolo[1,2-b][1,2,4]triazol-2-yl]sulfonyl]cyclopropanecarbonitrile]"
10,71 nM,"O=S(=O)(CC(F)(F)F)c1nc2n(n1)[C@H](c1ccccc1)C[C@@H]2F (single isomer, unassigned) [Example 114]"
11,4 nM,"[O-][S@+](c1nc2n(n1)[C@H](c1ccccc1)C[C@@H]2F)C(F)(F)F (single isomer, unassigned) [Example 181]"
12,26 nM,"CCCS(=O)(=O)c1nc2n(n1)[C@H](c1ccccc1)C[C@@H]2F (single isomer, unassigned) [Example 161]"
13,266 nM,"N#Cc1ccccc1[C@@H]1C[C@H](F)c2nc(S(=O)(=O)C(F)F)nn21 (single isomer, unassigned) [Example 62]"
14,18 nM,"N#CC[S+]([O-])c1nc2n(n1)[C@H](c1ccccc1)C[C@@H]2F (stereo partly drawn) [Example 102, 2-[[(5S,7S)-7-fluoro-5-phenyl-6,7-dihydro-5H-pyrrolo[1,2-b][1,2,4]triazol-2-yl]sulfinyl]acetonitrile]"
15,6 nM,"O=S(=O)(c1nc2n(n1)[C@H](c1cccc(F)c1F)C[C@@H]2F)C(F)F (single isomer, unassigned) [Example 68]"
16,10 nM,"N#CCSc1nc2n(n1)[C@H](c1ccccc1)C[C@@H]2F (single isomer, unassigned) [Example 89]"
17,55 nM,"O=S(=O)(c1nc2n(n1)[C@H](c1ccc(F)cc1)C[C@@H]2F)C(F)F (single isomer, unassigned) [Example 56]"
18,11 nM,"N#C[C@@H]1C[C@H]1S(=O)(=O)c1nc2n(n1)[C@H](c1ccccc1)C[C@@H]2F [Example 212, (1S,2R)-2-[[(5S,7S)-7-fluoro-5-phenyl-6,7-dihydro-5H-pyrrolo[1,2-b][1,2,4]triazol-2-yl]sulfonyl]cyclopropanecarbonitrile]"
